{
  "source": "patent US11253604B2",
  "about": "“Conjugate of methotrexate and peptide” (CAREGEN CO., LTD., priority 2017, dated 2022)",
  "key": {"[1]": {"system": "NIH3T3 fibroblast lines", "assay": "Cytotoxicity test: cell proliferation by MTT analysis (Ez-cytox kit)", "settings": "NIH3T3 fibroblasts, 3.9 to 500 μM, 48 hours, vs non-treated negative control"}, "[2]": {"system": "HaCaT keratinocyte lines", "assay": "Cytotoxicity test: cell proliferation by MTT analysis (Ez-cytox kit)", "settings": "HaCaT keratinocytes, 3.9 to 500 μM, 48 hours, vs non-treated negative control"}},
  "data": [
    {"smiles": "CN(Cc1cnc2nc(N)nc(N)c2n1)c1ccc(C(=O)N[C@@H](CCC(=O)O)C(=O)O)cc1", "note": "[methotrexate, Methotrexate]", "values": [
      {"measurement": "cytotoxicity (inhibition of cell proliferation)", "setting": "[1]", "result": "exhibited a significant degree of cytotoxicity"},
      {"measurement": "cytotoxicity (inhibition of cell proliferation)", "setting": "[2]", "result": "exhibited a significant degree of cytotoxicity"}
    ]}
  ]
}
